According to patent US12559450B2, “Lipidoids for nucleic acid transfection and use thereof” (Ustav Organicke Chemie a Biochemie AV CR, v.v.i., priority 2020, dated 2026):

Legend:
STING protein = STING protein (Homo sapiens, UniProt Q86WV6, H232R); assay: STING activation reporter assay (ISRE luciferase, HEK293T) with cGAMP-LNPs; conditions: read-out: EC50 STING activation; 2′,3′-cGAMP transfected with cGAMP-LNPs
Protocol: Cells were transferred to poly-D-lysine (Sigma-Aldrich)-coated 96-well plates (Greiner Bio-One) at a density of 2.5×10^4 in DMEM medium containing glucose (containing L-glutamine; Biowest) supplemented with 10% FBS (Capricorn Scientific) and 1% penicillin-streptomycin (Biowest). After incubation at 37° C. in 5% CO2 overnight, serially diluted compounds were added to the cells for 7 hours. In parallel, HEK293T cells were incubated with the test compounds alone for 30 minutes, washed twice with fresh medium, and then cultured for an additional 6.5 hours. Finally, 50 μl of cell culture medium was mixed with 30 μl of Bright-Glo Luciferase Assay System reagent (Promega) in white 96-well plates and luminescence was read in a Spark® spectrophotometer (TECAN, Grodig).

U2OS = assay: Cellular toxicity of mRNA-LNP, CellTiterGlo 2.0 viability; format: cell-based, human; conditions: total lipid 100 μM (context of the sentence)
Protocol: A human cell line derived from embryonic kidney cells (HEK293), the same line expressing SV40 large T antigen (HEK293T), human osteosarcoma-derived cell line (U2OS), and human hepatocyte carcinoma cell line (HepG2) were cultured in 96-well plates (5×10^4 cells in 100 μl of culture medium per well) in Dulbecco's modified medium (DMEM) or in IMDM medium (Iscove's Modified Dulbecco's medium) supplemented with 10% foetal bovine serum (FBS) at 37° C. in 5% CO2. Cells were transfected with 2 μl of mRNA-LNPs generated in triplicates in Example 25 (the final total concentration of all lipid components in the well was 20 μM) or 10 μl of mRNA-LNPs (the final total concentration of all lipid components in the well was 100 μM) and subsequently incubated for 24 hours. The cytotoxicity of LNPs was analysed in a CellTiterGlo 2.0 cell viability assay (Promega, USA). Cell viability was normalized to non-transfected cells (control).

STING protein, sequence (Q86WV6 whole entry H232R): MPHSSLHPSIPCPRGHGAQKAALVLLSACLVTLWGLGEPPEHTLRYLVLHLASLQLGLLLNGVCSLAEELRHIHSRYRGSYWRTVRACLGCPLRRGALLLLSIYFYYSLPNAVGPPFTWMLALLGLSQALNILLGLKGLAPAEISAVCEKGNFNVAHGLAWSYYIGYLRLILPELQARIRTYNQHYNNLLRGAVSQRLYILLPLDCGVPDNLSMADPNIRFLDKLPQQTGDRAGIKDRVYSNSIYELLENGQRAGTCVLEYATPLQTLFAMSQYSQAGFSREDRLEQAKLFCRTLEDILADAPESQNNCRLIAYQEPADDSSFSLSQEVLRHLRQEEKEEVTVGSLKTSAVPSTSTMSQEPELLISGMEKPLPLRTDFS

CCCCCCCCCCCCN(CCCCCCCCCCCC)CCCCCNC(=O)C12CC3CC(C(=O)NCCCCCN(CCCCCCCCCCCC)CCCCCCCCCCCC)(C1)CC(C(=O)NCCCCCN(CCCCCCCCCCCC)CCCCCCCCCCCC)(C3)C2 [4d]
EC50 (STING protein): 2 ± 0.36 nM | toxicity of particles formed by the lipidoid (in words) (U2OS): non-toxic
